From PMC9551036, “A selective and orally bioavailable VHL-recruiting PROTAC achieves SMARCA2 degradation in vivo” (Nature Communications, 2022)
≈ marks a conversion by molar mass, not a printed value. Where “and” joins values, the source holds several entries; their conditions need not be identical. Identical values can stand only once. Like-named read-outs stand apart in the source and are kept apart here.

Legend:
Solubility testing = assay type: physicochemical; conditions: for solubility at 24 h: buffer, kinetic from dmso stock
Procedure: Dilution into a 1:1 mixture of acetonitrile and water was used as reference. After 24 h, the incubations were filtrated, and the filtrate was analyzed by LC-UV.

SMARCA4 = SMARCA4 (Homo sapiens, UniProt P51532); experiment: Imaging-based SMARCA4 protein assay in RKO cells; assay type: cell-based; design: endogenous in cells; host or cells: RKO, HCT116, LU99, HCC-364, HCT-15, HCC4006, SK-N-AS; conditions: individual replicates
Procedure: (§1) 1250 cells per well in 60 µl medium were plated in flat bottom, poly-lysin coated 384-well plates (CellCarrier Ultra, Perkin Elmer). The next day, test compounds (10 µl of serial dilutions) and DMSO controls were diluted in DMEM medium such that the final DMSO content was <1% or were added using an ultrasound dispensing system. 4 wells were reserved for a background measurement. […] After aspirating the fixing solution, the cells were washed once with 25 µl PBS. 25 µl of blocking buffer (10% goat serum in PBS) was added and cells were incubated for 30 min, then washed once with PBS. Cells were stained with 20 µl of SMARCA2/4 primary antibody solution (Sigma #HPA029981 RRID:AB_10602406 1:1000 or Cell Signalling #52251 clone E9O6 RRID:AB_2799410 1:1000 in PBS with 10% FCS) for 2–4 h at room temperature. Cells were again washed once with PBS. […] The cell layer was then washed once with 25 µl PBS, the wells were filled with 25 µl PBS and the plates were sealed with an adhesive sheet. They were then imaged on the Opera Phoenix (mean intensity in the nucleus). Results were computed as percent of controls ((value of test compound − background)/(value of the negative control DMSO—background) multiplied by 100). EC50 values were computed using a 4-parametric logistic model.

[1] = tested on: VCB: PROTAC: SMARCA2^BD ternary complex; experiment: TR-FRET ternary complex affinity and cooperativity, SMARCA2; assay type: binding, human; conditions: ratio TR-FRET EC50 / TR-FRET EC50 +VCB measured in the same run, SMARCA2BD
[2] = tested on: VCB: PROTAC: SMARCA4^BD ternary complex; experiment: TR-FRET ternary complex affinity and cooperativity, SMARCA4; assay type: binding, human; conditions: ratio TR-FRET EC50 / TR-FRET EC50 +VCB measured in the same run, SMARCA4BD
SMARCA2 = SMARCA2 (Homo sapiens, UniProt P51531); experiment: Imaging-based SMARCA2 protein assay in RKO cells; assay type: cell-based; design: endogenous in cells; host or cells: RKO, NCI-H1568, A549, HCT116, LU99, HCC-364, HCT-15, HCC4006, SK-N-AS; conditions: individual replicates
Procedure: as §1, with “Cells were stained with 20 µl of SMARCA2/4 primary antibody solution (Sigma #HPA029981 RRID:AB_10602406 1:1000 or Cell Signalling #52251 clone E9O6 RRID:AB_2799410 1:1000 in PBS with 10% FCS) for 2–4 h at room temperature.” left out, “Results were computed as percent of controls ((value of test compound − background)/(value of the negative control DMSO—background) multiplied by 100).” left out

[3] = target: VCB: PROTAC: SMARCA4^BD ternary complex (Homo sapiens, UniProt P40337+P51532); experiment: TR-FRET ternary complex affinity and cooperativity, SMARCA4; assay type: binding; design: P51532, residues 1448–1569 with additional N-terminal SM residues; GST (TEV site) (N); His6 (TEV site) (N, cleaved yes); made in house; host or cells: SMARCA4^BD: Escherichia coli BL21(DE3)
PBRM1BD5 = target: T1, PBRM1BD5 (Homo sapiens, UniProt Q86U86); experiment: TR-FRET ternary complex affinity and cooperativity, PBRM1; assay type: binding
T1 construct: GST (TEV site) (N); His6 (TEV site) (N, cleaved yes); made in house; host or cells: PBRM1^BD5: Escherichia coli BL21(DE3)

[4] = 18h, read-out: RKO (18h) SMARCA4 DC50
[5] = 4h, read-out: RKO (4h) SMARCA2 DC50
[6] = 18h, read-out: RKO (18h) SMARCA2 DC50
[7] = PROTAC + VCB, individual replicates, read-out: Ternary SMARCA4 BD EC50 (PROTAC + VCB)
[8] = TR-FRET competition for SMARCA4BD, + VCB, mean ± SD, read-out: TR-FRET Ternary SMARCA4BD EC50 (PROTAC + VCB)
[9] = TR-FRET competition for PBRM1BD5, without VCB, mean ± SD, read-out: TR-FRET PBRM1BD EC50
[10] = pH 4.5, aqueous buffer, pH 4.5, read-out: Solubility pH 4.5
[11] = pH 6.8, aqueous buffer, pH 6.8, read-out: Solubility pH 6.8
[12] = 4h, read-out: RKO (4h) SMARCA4 DC50

VCB: PROTAC: SMARCA4^BD ternary complex (Homo sapiens, UniProt P40337+P51532), sequence (P51532 1448-1569): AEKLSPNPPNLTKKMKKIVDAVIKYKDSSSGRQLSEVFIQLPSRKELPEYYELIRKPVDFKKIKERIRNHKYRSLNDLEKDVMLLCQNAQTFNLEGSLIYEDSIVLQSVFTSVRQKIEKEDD
VCB: PROTAC: SMARCA4^BD ternary complex (Homo sapiens, UniProt P40337+P51532), sequence (P40337 54-213): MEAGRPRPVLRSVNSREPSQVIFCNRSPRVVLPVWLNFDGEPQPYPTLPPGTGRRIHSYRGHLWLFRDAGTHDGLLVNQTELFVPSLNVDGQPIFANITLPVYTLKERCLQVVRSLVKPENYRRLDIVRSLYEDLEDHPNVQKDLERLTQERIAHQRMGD
VCB: PROTAC: SMARCA4^BD ternary complex (Homo sapiens, UniProt P40337+P51532), sequence (Q15369 17-112 partner): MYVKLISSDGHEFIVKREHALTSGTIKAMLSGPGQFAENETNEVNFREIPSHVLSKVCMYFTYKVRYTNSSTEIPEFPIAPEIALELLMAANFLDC
VCB: PROTAC: SMARCA4^BD ternary complex (Homo sapiens, UniProt P40337+P51532), sequence (Q15370 1-104 partner): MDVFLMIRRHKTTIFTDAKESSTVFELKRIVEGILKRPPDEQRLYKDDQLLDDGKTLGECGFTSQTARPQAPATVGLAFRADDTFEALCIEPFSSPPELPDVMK
SMARCA4, sequence (P51532 whole entry): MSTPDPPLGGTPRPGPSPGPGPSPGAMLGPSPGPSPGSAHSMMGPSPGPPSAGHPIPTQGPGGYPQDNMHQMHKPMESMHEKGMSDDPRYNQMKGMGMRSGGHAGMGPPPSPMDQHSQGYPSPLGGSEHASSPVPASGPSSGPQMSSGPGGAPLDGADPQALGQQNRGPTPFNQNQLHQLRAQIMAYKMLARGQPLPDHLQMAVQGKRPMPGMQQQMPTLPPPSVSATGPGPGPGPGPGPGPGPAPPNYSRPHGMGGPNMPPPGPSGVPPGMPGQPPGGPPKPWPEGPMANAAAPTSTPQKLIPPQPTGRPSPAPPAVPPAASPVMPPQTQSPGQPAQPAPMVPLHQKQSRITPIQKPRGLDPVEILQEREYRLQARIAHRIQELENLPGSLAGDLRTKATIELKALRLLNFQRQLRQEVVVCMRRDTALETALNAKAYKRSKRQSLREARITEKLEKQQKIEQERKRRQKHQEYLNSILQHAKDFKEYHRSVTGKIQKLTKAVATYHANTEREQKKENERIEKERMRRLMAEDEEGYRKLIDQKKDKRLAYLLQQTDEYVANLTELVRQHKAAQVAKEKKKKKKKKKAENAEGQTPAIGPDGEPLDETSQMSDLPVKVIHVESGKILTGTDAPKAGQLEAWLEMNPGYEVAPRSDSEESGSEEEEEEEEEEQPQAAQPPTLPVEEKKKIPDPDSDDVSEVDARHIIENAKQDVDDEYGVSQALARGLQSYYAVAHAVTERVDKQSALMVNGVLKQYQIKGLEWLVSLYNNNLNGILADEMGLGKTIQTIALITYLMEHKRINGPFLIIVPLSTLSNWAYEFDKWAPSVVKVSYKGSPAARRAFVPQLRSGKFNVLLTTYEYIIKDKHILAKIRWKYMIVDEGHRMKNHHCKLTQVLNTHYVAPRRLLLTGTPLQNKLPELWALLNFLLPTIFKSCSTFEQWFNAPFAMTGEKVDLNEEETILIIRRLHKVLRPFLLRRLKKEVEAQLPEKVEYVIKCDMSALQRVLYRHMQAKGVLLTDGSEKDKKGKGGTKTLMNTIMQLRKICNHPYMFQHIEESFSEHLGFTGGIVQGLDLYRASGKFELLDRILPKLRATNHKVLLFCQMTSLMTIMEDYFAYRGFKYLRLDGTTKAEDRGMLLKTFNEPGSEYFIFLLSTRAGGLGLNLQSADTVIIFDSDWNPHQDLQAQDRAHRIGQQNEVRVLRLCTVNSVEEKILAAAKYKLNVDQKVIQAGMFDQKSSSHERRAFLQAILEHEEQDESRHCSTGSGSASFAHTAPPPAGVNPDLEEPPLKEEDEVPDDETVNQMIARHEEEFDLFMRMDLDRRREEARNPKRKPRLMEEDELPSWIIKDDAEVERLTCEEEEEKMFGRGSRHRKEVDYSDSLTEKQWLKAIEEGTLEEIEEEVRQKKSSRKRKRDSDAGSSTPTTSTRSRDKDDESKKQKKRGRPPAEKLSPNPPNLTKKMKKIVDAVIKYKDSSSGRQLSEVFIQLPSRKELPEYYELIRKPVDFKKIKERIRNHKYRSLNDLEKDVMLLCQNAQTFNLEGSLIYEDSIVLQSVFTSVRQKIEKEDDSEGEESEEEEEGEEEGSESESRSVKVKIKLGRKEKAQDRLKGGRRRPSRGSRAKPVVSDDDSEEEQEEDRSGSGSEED
T1 sequence (Q86U86 645-766): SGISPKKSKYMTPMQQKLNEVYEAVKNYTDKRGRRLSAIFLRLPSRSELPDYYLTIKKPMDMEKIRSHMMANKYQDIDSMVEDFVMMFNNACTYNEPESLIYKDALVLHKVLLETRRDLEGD
SMARCA2, sequence (P51531 whole entry): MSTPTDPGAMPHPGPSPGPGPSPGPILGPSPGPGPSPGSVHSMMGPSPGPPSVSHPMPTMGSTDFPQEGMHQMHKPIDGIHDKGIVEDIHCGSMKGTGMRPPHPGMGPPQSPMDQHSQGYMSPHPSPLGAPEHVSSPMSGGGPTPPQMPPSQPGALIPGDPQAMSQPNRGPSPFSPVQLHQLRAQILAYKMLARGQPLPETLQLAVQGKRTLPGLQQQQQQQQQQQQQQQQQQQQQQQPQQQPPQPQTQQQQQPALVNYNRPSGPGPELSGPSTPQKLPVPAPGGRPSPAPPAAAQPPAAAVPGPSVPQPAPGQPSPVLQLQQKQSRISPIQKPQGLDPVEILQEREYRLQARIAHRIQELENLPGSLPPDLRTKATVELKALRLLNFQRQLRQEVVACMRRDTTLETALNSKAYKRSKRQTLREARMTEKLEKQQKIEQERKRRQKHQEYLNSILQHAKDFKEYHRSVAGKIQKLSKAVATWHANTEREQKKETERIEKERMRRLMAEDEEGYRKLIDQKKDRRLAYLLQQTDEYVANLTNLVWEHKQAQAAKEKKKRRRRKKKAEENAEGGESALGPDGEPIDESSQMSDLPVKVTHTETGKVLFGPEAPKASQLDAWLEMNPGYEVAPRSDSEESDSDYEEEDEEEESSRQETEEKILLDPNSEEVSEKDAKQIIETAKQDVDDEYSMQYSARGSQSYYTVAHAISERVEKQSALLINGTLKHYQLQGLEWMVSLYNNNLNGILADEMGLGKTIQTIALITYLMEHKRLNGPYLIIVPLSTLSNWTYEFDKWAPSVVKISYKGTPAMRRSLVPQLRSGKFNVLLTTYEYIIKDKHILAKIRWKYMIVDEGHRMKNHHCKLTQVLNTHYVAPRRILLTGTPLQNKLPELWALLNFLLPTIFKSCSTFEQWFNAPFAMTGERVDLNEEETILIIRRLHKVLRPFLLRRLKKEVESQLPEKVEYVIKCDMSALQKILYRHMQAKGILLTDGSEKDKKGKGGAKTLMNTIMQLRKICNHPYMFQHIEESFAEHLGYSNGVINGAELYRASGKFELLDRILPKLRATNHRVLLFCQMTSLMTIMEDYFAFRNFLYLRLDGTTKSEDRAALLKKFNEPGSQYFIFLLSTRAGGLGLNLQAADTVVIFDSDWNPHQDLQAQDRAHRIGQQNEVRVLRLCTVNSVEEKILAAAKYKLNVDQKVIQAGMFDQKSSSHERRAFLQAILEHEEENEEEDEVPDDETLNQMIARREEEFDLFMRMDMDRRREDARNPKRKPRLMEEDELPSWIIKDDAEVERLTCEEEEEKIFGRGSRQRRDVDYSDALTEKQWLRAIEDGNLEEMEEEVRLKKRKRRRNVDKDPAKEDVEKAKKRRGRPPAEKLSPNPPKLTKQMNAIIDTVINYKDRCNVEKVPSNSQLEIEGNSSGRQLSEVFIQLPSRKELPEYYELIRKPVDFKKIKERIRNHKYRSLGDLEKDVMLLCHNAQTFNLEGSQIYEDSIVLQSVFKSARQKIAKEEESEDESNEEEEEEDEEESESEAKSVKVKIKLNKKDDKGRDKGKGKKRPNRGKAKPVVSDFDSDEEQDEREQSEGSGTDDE

Row | Compound | Solubility pH 6.8 (Solubility testing; pH 6.8) | DC50 (SMARCA4; [4]) | cooperativity α (SMARCA2BD) [1] | cooperativity α (SMARCA4BD) [2] | DC50 (SMARCA2; [5]) | DC50 (SMARCA2; [6]) | EC50 [3, 7] | EC50 [3, 8] [nM] | EC50 (PBRM1BD5; [9]) [nM] | solubility at 24 h (Solubility testing; [10]) [µg/mL] | solubility at 24 h (Solubility testing; [11]) [µg/mL] | DC50 (SMARCA4; [12]) | Solubility pH 4.5 (Solubility testing; pH 4.5) | EC50 (PBRM1BD5) [nM]
1 | Cc1ncsc1-c1ccc([C@H](COC(C)(C)CN2CCC(c3ccc4c(c3)n(C3CCCC3)c3nc(=O)c5c(Br)cccc5n43)CC2)NC(=O)[C@@H]2C[C@@H](O)CN2C(=O)[C@@H](NC(=O)C2(F)CC2)C(C)(C)C)cc1 [compound 28] | <1.000 <1.000 <1.000 <1.000 <1.000 ug/mL | 101 nM and 200 nM (2×) and > 833 nM | 3.8 ± 0.4 | 3.2 ± 0.7 | 14.7 nM and 15 nM and 30.1 nM and 11.8 nM | 3.23 nM and 5.17 nM and 7.73 nM and 5.43 nM | 99.7 nM and 76.7 nM and 88 nM and 49.7 nM | 76 ± 21 | 24 ± 11 | – | – | – | – | –
2 | Cc1ncsc1-c1ccc([C@H](COC(C)CN2CCC(c3ccc4c(c3)n(C3CCCC3)c3nc(=O)c5c(Br)cccc5n43)CC2)NC(=O)[C@@H]2C[C@@H](O)CN2C(=O)[C@@H](NC(=O)C2(F)CC2)C(C)(C)C)cc1 (stereo partly shown) [compound 9] | – | 912 nM and > 833 nM (2×) and 3.47 µM | 7.0 ± 2.6 | 2.2 ± 0.2 | 11.4 nM and 10.4 nM and 9.77 nM and 18.8 nM | 4.73 nM and 4.97 nM and 4.9 nM and 3.53 nM | 88.4 nM and 113 nM and 133 nM and 114 nM and 84.3 nM | 105 ± 20 | 34 ± 4 | 14 (≈ 13.3 µM) | < 1 | > 25000 nM | – | –
3 | Cc1ncsc1-c1ccc([C@H](COC(C)CN2CCC(c3ccc4c(c3)n(C3CCCC3)c3nc(=O)c5c(Br)cccc5n43)CC2)NC(=O)[C@@H]2C[C@@H](O)CN2C(=O)[C@@H](NC(=O)C2(N(C)C)CC2)C(C)(C)C)cc1 (stereo partly shown) [compound 10] | 2.000 ug/mL | 103 nM and 218 nM and 235 nM | 10.1 ± 3.8 | 2.6 ± 0.8 | 8.19 nM and 6.54 nM and 2.93 nM and 10.6 nM | 1.26 nM and 3.06 nM and 6.17 nM | 69.6 nM and 88.2 nM and 77.2 nM and 49.4 nM | 70 ± 16 | 31 ± 1 | 210 (≈ 195 µM) | < 1 | > 25000 nM | – | –
4 | Cc1ncsc1-c1ccc([C@H](CCC(C)(C)CCN2CCC(c3ccc4c(c3)n(C3CCCC3)c3nc(=O)c5c(Br)cccc5n43)CC2)NC(=O)[C@@H]2C[C@@H](O)CN2C(=O)[C@@H](NC(=O)C2(F)CC2)C(C)(C)C)cc1 [compound 30] | <1.000 ug/mL | – | 5.9 ± 1.9 | 4.3 ± 0.5 | 6.74 nM and 9.27 nM | 2.02 nM and 3.96 nM and 3.27 nM and 3.57 nM | 88.3 nM and 118 nM and 113 nM | 106 ± 16 | 131 ± 49 | – | – | > 25000 nM | <1.000 ug/mL | –
5 | Cc1ncsc1-c1ccc([C@H](COCCCN2CCC(c3ccc4c(c3)n(C3CCCC3)c3nc(=O)c5c(Br)cccc5n43)CC2)NC(=O)[C@@H]2C[C@@H](O)CN2C(=O)[C@@H](NC(=O)C2(F)CC2)C(C)(C)C)cc1 [compound 27] | <1.000 <1.000 ug/mL | 22.8 nM and 30.9 nM and 34.7 nM | 3.3 ± 0.8 | 2.8 ± 0.5 | 5.2 nM and 2.76 nM and 5.65 nM and 7.65 nM | 1.7 nM and 2.99 nM and 2.34 nM | 63.8 nM and 63.4 nM and 53.1 nM and 76.7 nM and 81.7 nM and 82 nM | 69 ± 12 | 33 ± 7 | – | – | – | <1.000 <1.000 ug/mL | –
6 | Cc1ncsc1-c1ccc([C@H](CC[C@@H](C)CCN2CCC(c3ccc4c(c3)n(C3CCCC3)c3nc(=O)c5c(Br)cccc5n43)CC2)NC(=O)[C@@H]2C[C@@H](O)CN2C(=O)[C@@H](NC(=O)C2(F)CC2)C(C)(C)C)cc1 [compound 29] | <1.000 <1.000 ug/mL | 6.86 nM and 10.4 nM (2×) and 14.2 nM and 15.3 nM and 14 nM | 6.4 ± 1.1 | 7.0 ± 1.3 | 1.56 nM and 2.15 nM and 1.32 nM and 3.46 nM | 0.877 nM and 0.998 nM and 0.942 nM and 0.753 nM | 49.3 nM and 72.5 nM and 61.2 nM | 60 ± 12 | 85 ± 25 | – | – | 11.1 nM and 13.5 nM and 12.4 nM and 24.9 nM | <1.000 <1.000 ug/mL | –
7 | Cc1ncsc1-c1ccc(CNC(=O)[C@@H]2C[C@H](O)CN2C(=O)[C@@H](NC(=O)C2(F)CC2)C(C)(C)C)c(OCCN2CCC(c3ccc4c(c3)n(C3CCCC3)c3nc(=O)c5c(Br)cccc5n43)CC2)c1 [compound 19] | <1.000 ug/mL | > 25000 nM | 1.2 ± 0.1 | 0.9 ± 0.1 | > 25000 nM | > 25000 nM | 201 nM and 160 nM and 159 nM | 173 ± 19 | 38 ± 2 | – | – | > 25000 nM | <1.000 ug/mL | –
8 | Cc1ncsc1-c1ccc([C@H](CC[C@H](C)CCN2CCC(c3ccc4c(c3)n(C3CCCC3)c3nc(=O)c5c(Br)cccc5n43)CC2)NC(=O)[C@@H]2C[C@H](O)CN2C(=O)[C@@H](NC(=O)C2(F)CC2)C(C)(C)C)cc1 [compound 12] | – | 4950 nM and 4740 nM and 8100 nM and 6070 nM | 1.1 ± 0.3 | 0.9 ± 0.1 | > 25000 nM | 10700 nM and 4780 nM and 8270 nM and > 25000 nM | > 400 nM and 385 nM and 314 nM | 367 ± 38 | – | < 1 | < 1 | > 25000 nM | – | 75 ± 6
9 | Cc1ncsc1-c1ccc([C@H](COCCN2CCC(c3ccc4c(c3)n(C3CCCC3)c3nc(=O)c5c(Br)cccc5n43)CC2)NC(=O)[C@@H]2C[C@@H](O)CN2C(=O)[C@@H](NC(=O)C2(N(C)C)CC2)C(C)(C)C)cc1 [compound 26] | – | 61.5 nM and 91.3 nM and 101 nM | 5.8 ± 1.9 | 2.6 ± 0.7 | 13.4 nM and 7.13 nM and 22 nM and 9.24 nM | 3.5 nM and 6.73 nM and 7.09 nM | – | 56 ± 23 | 22 ± 5 | 200 (≈ 188 µM) | < 1 | 66.9 nM and 93.6 nM and 83.9 nM | – | –
10 | Cc1ncsc1-c1ccc(CNC(=O)[C@@H]2C[C@@H](O)CN2C(=O)[C@@H](NC(=O)C2(F)CC2)C(C)(C)C)c(OCCN2CCC(c3ccc4c(c3)n(C3CCCC3)c3nc(=O)c5c(Br)cccc5n43)CC2)c1 [compound 20] | <1.000 <1.000 <1.000 <1.000 <1.000 ug/mL | > 25000 nM | 0.6 ± 0.2 | 0.4 ± 0.0 | > 25000 nM | – | 312 nM and 310 nM and 294 nM and 321 nM | 309 ± 11 | 38 ± 4 | – | – | > 25000 nM | <1.000 <1.000 <1.000 <1.000 <1.000 ug/mL | –
11 | Cc1ncsc1-c1ccc(C(CCC(C)CCN2CCC(c3ccc4c(c3)n(C3CCCC3)c3nc(=O)c5c(Br)cccc5n43)CC2)NC(=O)C2CC(O)CN2C(=O)C(NC(=O)C2(F)CC2)C(C)(C)C)cc1 (stereo not shown) [ACBI2] | – | 37.7 nM and 30.3 nM and 30.7 nM and 30.9 nM and 26.2 nM and 33.5 nM and 25.2 nM and 30.8 nM and 63.4 nM and 30 nM and 29.1 nM and 27.7 nM | 4.6 ± 2.2 | 3.7 ± 0.8 | 3.55 nM and 1.63 nM and 1.77 nM and 3.45 nM and 4.01 nM and 4.03 nM and 3.11 nM | 2 nM and 2.28 nM and 1.37 nM and 1.63 nM and 1.15 nM and 1.22 nM and 1.53 nM and 0.997 nM and 1.43 nM and 0.892 nM | 80.9 nM and 99.7 nM and 79.5 nM | 86 ± 11 | – | < 1 | < 1 | – | – | 67 ± 9
